Experimental data from patent US7332473B2, “Peptides and medicinal compositions containing the same” (priority 2002, dated 2008).
Read-outs that look alike come from different tables or passages of the source. Ends that are not written are not given here.

Columns and labels:
[1] = physchem; assay type: physicochemical; details: buffer or solvent
Procedure: Adequate amounts of peptides 4, 12, 21, and 23 were fractionated via weighing and then dissolved in distilled water (Otsuka Distilled Water) adjusted at pH levels of 6.0 and 7.0 to bring the final concentration to 10 μg/ml. The resulting solutions were allowed to stand in an incubator at 55° C. (FC-610, Advantec) for 3 days, and reverse phase HPLC analysis was carried out (wavelength: 220 nm; mobile phase: acetonitrile (29.5%)/trifluoroacetic acid (0.1%); column: ODS-120T (Tosoh); column temperature: 25° C.) to examine the quantities of remaining peptides 4, 12, 21, and 23. […] This was particularly apparent at pH 7.0.

[2] = physchem; assay type: physicochemical; details: pH 7; for remaining at 240 h, 100 μg/ml / remaining at 480 h, 100 μg/ml / remaining at 720 h, 100 μg/ml: buffer or solvent
Procedure: Adequate amounts of peptides 4, 12, 21, and 23 were fractionated via weighing and then dissolved in distilled water (Otsuka Distilled Water) adjusted at the pH level of 7.0 to bring the final concentration to 100 μg/ml. The resulting solutions were allowed to stand in an incubator at 55° C. (FC-610, Advantec) for 0, 10, 20, and 30 days, respectively, and reverse phase HPLC analysis was carried out (wavelength: 220 nm; mobile phase: acetonitrile (29.5%)/trifluoroacetic acid (0.1%); column: ODS-120T (Tosoh); column temperature: 25° C.) to examine the amount of remaining peptides 4, 12, 21, and 23.

[3] = physchem; assay type: physicochemical; details: for remaining at 168 h, 100 μg/ml: buffer
Procedure: (§1) Adequate amounts of peptides 4, 12, 21, and 23 were fractionated via weighing and then dissolved in phosphate buffers (aqueous solution of 0.001% sodium dihydrogen phosphate) adjusted to pH levels of 6.0 and 7.0 to bring the final concentration to 100 μg/ml. The resulting solutions were allowed to stand in a thermo-hygrostat (LH-20-11, Nagano Kagaku) at 40° C. and 75% RH for a week, and reverse phase HPLC analysis was carried out (wavelength: 220 nm; mobile phase: acetonitrile (29.5%)/trifluoroacetic acid (0.1%); column: ODS-120T (Tosoh); column temperature: 25° C.) to examine the quantities of remaining peptides 4, 12, 21, and 23.

[4] = physchem; assay type: physicochemical; details: pH 7; for remaining at 240 h, 100 μg/ml / remaining at 480 h, 100 μg/ml / remaining at 720 h, 100 μg/ml: buffer
Procedure: as §1, with “phosphate buffer (an aqueous” for “phosphate buffers (aqueous”, “adjusted at the” for “adjusted to”, “pH level” for “pH levels”, “of” for “of 6.0 and”, “for 0, 10, 20, and 30 days,” for “for a week,”

[5] = test system: bronchial smooth muscle; experiment: Relaxant effect on bronchial smooth muscle (carbachol-constricted trachea, Magnus tank); design: species or system Hartley male guinea pigs; details: carbachol (3×10^−7 M)-induced constriction; peptide 12 cumulative 10^−9 M to 3×10^−6 M, peptides 21 and 23 single 3×10^−6 M; isoproterenol 10^−6 M = 100% relaxation
[6] = test system: PC-12 cells; experiment: Effect of inducing neurite formation; assay type: cell-based, rat; details: peptides 100 nM, cultured 3 days, compared to control without peptide and peptide 1
Procedure: Effect of peptides 1, 4, 12, 21, and 23 for inducing neurite formation were tested in the manner described below. PC-12 cells were cultured in Dulbecco's modified minimum essential medium (DMEM) containing 5% horse serum and 5% fetal calf serum in the presence of 5% CO2 and 95% air at 37° C. Cells were separated from the culture flask with the aid of trypsin, counted using a cytometer, and then the concentration was adjusted to 1.0×10^4 cells/ml. The cell-containing liquid medium was added to a Biocoat type IV collagen-coated 24-well dish in amounts of 1 ml each and then cultured in the presence of 5% CO2 and 95% air at 37° C. for 24 hours. The medium was replaced 24 hours later, and peptides (100 nM) were added at that time. The resultant was continuously cultured for 3 days and then photographed. […] The scale bar in each photograph represents 100 μm.

[7] = test system: PC12 cells; assay type: cell-based, rat
[8] = Stability of peptide 4 in distilled water, 40° C., 24 hours (reverse phase HPLC); assay type: physicochemical
Procedure: Peptide 4, a modified peptide, having a higher Arg content than wild-type VIP was weighed and fractionated to about 1 mg, the fractions were dissolved in distilled water adjusted to pH levels of 4.0, 5.0, 6.0, and 7.0 (Otsuka Distilled Water), and the final concentration was adjusted to 10 μg/ml. The resulting solutions were allowed to stand in an incubator at 40° C. (LH20-11M, Nagano Kagaku) for 24 hours, analysis was carried out via reverse phase HPLC (wavelength: 220 nm; mobile phase: 28% acetonitrile/0.1% trifluoroacetic acid; column: ODS-120T (Tosoh); column temperature: 25° C.), and the amount of remaining peptide 4 was examined.

[9] = test system: gastric constriction; experiment: Inhibitory effect on gastric peristaltic movement (carbachol-constricted isolated stomach, Magnus tank); design: species or system ICR mice; details: test peptides 10^−6 M, carbachol 3×10^−6 M, 15 minutes after drug administration, level of peptide 9 (control drug) = 100
[10] = Helical content from circular dichroism spectra; assay type: physicochemical; details: 20 mM Tris-HCl buffer (pH 7.4), calculation by Greenfield et al.
Procedure: VIP (peptide 1, SEQ ID NO: 2), peptide 7 (SEQ ID NO: 8) corresponding to 25 residues at the N-terminus of VIP, and peptide 8 (SEQ ID NO: 9), which is a peptide 7 derivative with its methionine-17 being oxidized, were dissolved in a 20 mM Tris-HCl buffer (pH 7.4), and the circular dichroism spectra thereof were examined using the Jasco J-720 (Jasco Corporation). According to analytical calculation of higher-order structure by Greenfield et al., the helical content of peptide 1 was about 50% (FIG. 2).

| Substance | remaining at 72 h, 10 μg/ml ([1]; pH 6) [%] | remaining at 240 h, 100 μg/ml [2] [%] | remaining at 480 h, 100 μg/ml [2] [%] | remaining at 720 h, 100 μg/ml [2] [%] | stability (in words) [2] | remaining at 168 h, 100 μg/ml ([3]; pH 6) [%] | stability (in words) ([3]; pH 6) | remaining at 240 h, 100 μg/ml [4] [%] | remaining at 480 h, 100 μg/ml [4] [%] | remaining at 720 h, 100 μg/ml [4] [%] | effect of relaxing the trachea (in words) [5] | neurite formation (in words) [6] | neuroprotective effect, viable cell counts (in words) [7] | remaining at 72 h, 10 μg/ml ([1]; pH 7) [%] | remaining at 168 h, 100 μg/ml ([3]; pH 7) [%] | Level of constriction inhibition [9] | also measured |
| --- | --- | --- | --- | --- | --- | --- | --- | --- | --- | --- | --- | --- | --- | --- | --- | --- | --- |
| H-HSDAVFTANYTRLRRQLAVRRYLAAILGRR-NH2 [Peptide 23] | 100 | 62 | 42 | 30 | still remained 30 days later | 100 | significantly improved compared to that of peptide 4 | 98 | 89 | 73 | apparent peptide-addition-dependent effect of relaxing the trachea | significantly induced neurite formation | significantly higher than that of peptide 1 |  |  |  |  |
| H-HSDAVFTDNYTRLRRQLAVRRYLAAILGRR-NH2 [Peptide 12] | 94 | 49 | 34 | 18 | still remained 30 days later | 100 | significantly improved compared to that of peptide 4 | 84 | 86 | 73 | apparent peptide-addition-dependent effect of relaxing the trachea | significantly induced neurite formation | significantly higher than that of peptide 1 | 100 | 90 |  |  |
| H-HSDAVFTDNYTRLRRQLAVRRYLNSILNGRR-NH2 [Peptide 4, reference compound] |  | 0 | 0 | 0 | completely disappeared after storage for 10 days | 53 |  | 28 | 13 |  |  | significantly induced neurite formation | significantly higher than that of peptide 1 | 67 | 35 |  | remaining at 24 h ([8]; buffer or solvent, pH 5.0, distilled water, 10 μg/ml, 40° C., read-out: Amount of remaining peptide): 90%; peptide degradation (in words) ([8]; distilled water pH 4.0 to 7.0, 40° C.): peptide degradation was significant at around the neutral pH region; remaining at 24 h, 10 μg/ml ([8]; pH 4.0, distilled water, 10 μg/ml, 40° C., read-out: Amount of remaining peptide): 91%; remaining at 24 h, 10 μg/ml ([8]; pH 6.0, distilled water, 10 μg/ml, 40° C., read-out: Amount of remaining peptide): 93%; remaining at 24 h, 10 μg/ml ([8]; pH 7.0, distilled water, 10 μg/ml, 40° C., read-out: Amount of remaining peptide): 84%; stability (in words) [4]: disappeared 30 days later |
| H-HSDAVFTENYTRLRRQLAVRRYLAAILGRR-NH2 [Peptide 21] | 93 | 29 | 45 | 10 | still remained 30 days later | 100 | significantly improved compared to that of peptide 4 | 100 | 76 | 59 | apparent peptide-addition-dependent effect of relaxing the trachea | significantly induced neurite formation | significantly higher than that of peptide 1 | 100 | 87 |  |  |
| His-Ser-Asp-Ala-Val-Phe-Thr-Asp-Asn-Tyr-Thr-Arg-Leu-Arg-Arg-Gln-Leu-Ala-Val-Arg-Arg-Tyr-Leu-NH2 (HSDAVFTDNYTRLRRQLAVRRYL-NH2) [Peptide 10] |  |  |  |  |  |  |  |  |  |  |  |  |  |  |  | 227 |  |
| His-Ser-Asp-Ala-Val-Phe-Thr-Asp-Asn-Tyr-Thr-Arg-Leu-Arg-Lys-Gln-Leu-Ala-Val-Lys-Lys-Tyr-Leu-NH2 (HSDAVFTDNYTRLRKQLAVKKYL-NH2) [Peptide 9, reference compound] |  |  |  |  |  |  |  |  |  |  |  |  |  |  |  | 100 |  |
| His-Ser-Asp-Ala-Val-Phe-Thr-Asp-Asn-Tyr-Thr-Arg-Leu-Arg-Lys-Gln-Met-Ala-Val-Lys-Lys-Tyr-Leu-Asn-Ser-Ile-Leu-Asn-NH2 [Peptide 1, reference compound] |  |  |  |  |  |  |  |  |  |  |  |  | significant neuroprotective effects |  |  |  | helical content [10]: about 50% |
| His-Ser-Asp-Ala-Val-Phe-Thr-Asp-Asn-Tyr-Thr-Arg-Leu-Arg-Lys-Gln-Met-Ala-Val-Lys-Lys-Tyr-Leu-Asn-Ser-NH2 (HSDAVFTDNYTRLRKQMAVKKYLNS-NH2) [Peptide 7, corresponding to 25 residues at the N-terminus of VIP] |  |  |  |  |  |  |  |  |  |  |  |  |  |  |  |  | helical content [10]: would retain a good deal of such higher-order structure |
| His-Ser-Asp-Gly-Ile-Phe-Thr-Asp-Ser-Tyr-Ser-Arg-Tyr-Arg-Arg-Gln-Leu-Ala-Val-Arg-Arg-Tyr-Leu-NH2 (HSDGIFTDSYSRYRRQLAVRRYL-NH2) [Peptide 33] |  |  |  |  |  |  |  |  |  |  |  |  |  |  |  | 160 |  |
